Test results published in publication PMC9666555, “Genuine selective caspase-2 inhibition with new irreversible small peptidomimetics” (Cell Death & Disease, 2022).
Values joined by “and” are separate entries in the source; they are usually repeats but may differ in a detail not shown here. Equal values may be shown once. Non-standard residues stand in square brackets, D forms with d. Residues, ends and D or L forms follow the SMILES beside them. ξ: configuration not given here. *: point of attachment. ξTHIQ1CO(6-Me) = Cc1ccc2c(c1)CCNC2C(=O)O; X1 = O=C(O)CC(N*)C(=O)COc1c(F)cccc1F; Quinaldoyl = O=C(c1ccc2ccccc2n1)*

Assays:
recombinant human Casp2 = target: T1, recombinant human Casp2 (Homo sapiens, UniProt P42575); assay: Enzyme mechanistic studies (Ki, k3, k3/KI), Caspase-2; assay type: biochemical
T1 sequence (P42575 170-325 limits assumed): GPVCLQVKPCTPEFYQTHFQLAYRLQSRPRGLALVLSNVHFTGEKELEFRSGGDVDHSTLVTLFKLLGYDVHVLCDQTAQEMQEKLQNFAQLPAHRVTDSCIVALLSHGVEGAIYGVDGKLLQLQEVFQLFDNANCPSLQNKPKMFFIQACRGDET
T1 sequence (P42575 348-452 limits assumed): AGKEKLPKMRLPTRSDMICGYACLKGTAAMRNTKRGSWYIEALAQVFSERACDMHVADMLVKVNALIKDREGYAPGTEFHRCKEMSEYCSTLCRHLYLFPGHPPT
Description: (§1) For reversible inhibitors, the mechanisms of inhibition were determined by varying substrate and inhibitor concentrations and using Lineweaver−Burk representations to determine the inhibition constants Ki of competitive inhibitors (Ki = [E][I]/[EI]). For suicide inhibitors, inactivation can be represented by the minimum kinetic scheme (Eq. 2), where E and I are the free forms of enzyme and inhibitor, E * I a kinetic chimera of the Michaelis complex and E − I the covalent complex (inactivated enzyme).2 E+I⇄KIE*I→k3E−I
(§2) KI and k3 are the kinetic constants characterizing the inactivation process and the k3/KI ratio is an index of the inhibitory potency. The first-order rate constant, k3, and the apparent dissociation constant, KI, were determined for Caspase-2 and -3 using the progress curve method. Briefly, the enzyme activities were measured continuously for 120 min. To determine the kinetic parameters, progress curves were obtained at several inhibition concentrations using fixed substrate concentration. The product released for each inhibitor concentration was plotted versus the time following Eq. 3 where the constant π depended on [I]’, a modified inhibitor concentration due to substrate competition, according to Eq. 4. [I]’ is defined by Eq. 5, where KM was Michaelis constant for the enzymatic hydrolysis of the appropriate fluorogenic substrate. The ratio k3/KI was obtained by fitting the experimental data to the equations (F.U., fluorescence unit):3 F.U.=∫0tvidt+F.U0−vo×e^−π×t/π+F.U.0 4 π=k3×[I]^′/KI+[I]^′ 5 [I]^′=[I]/1+S/KM
Linear and nonlinear regression fits of the experimental data to the equations were performed with KaleidaGraph software. The experimental conditions were [Caspase-2]0 = 0.2 nM, [Ac-VDVAD-AMC]0 = 25 µM and [Caspase-3]0 = 0.1 nM, [Ac-DEVD-AMC]0 = 10 µM; [I]0 = 0–100 µM.

recombinant human Casp3 = target: T2, recombinant human Casp3 (Homo sapiens, UniProt P42574); assay: Enzyme mechanistic studies (Ki, k3, k3/KI), Caspase-3; assay type: biochemical; conditions: irreversible inhibitors, progress curve method
T2 sequence (P42574 29-175 limits assumed): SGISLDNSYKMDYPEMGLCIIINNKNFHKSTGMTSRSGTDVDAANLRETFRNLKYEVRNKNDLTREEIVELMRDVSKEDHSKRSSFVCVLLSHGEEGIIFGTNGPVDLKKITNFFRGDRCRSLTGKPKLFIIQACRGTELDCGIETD
T2 sequence (P42574 176-277 limits assumed): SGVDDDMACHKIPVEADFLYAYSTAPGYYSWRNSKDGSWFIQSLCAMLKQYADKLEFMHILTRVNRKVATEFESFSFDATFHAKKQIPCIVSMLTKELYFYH
Description: as §1, §2
Linear and nonlinear regression fits of the experimental data to the equations were performed with KaleidaGraph software.

[1] = target: T3, human active recombinant Caspase-3 (Homo sapiens, UniProt P42574); assay: In vitro caspase activity and inhibition assay (IC50), Caspase-3; assay type: biochemical; conditions: 30 min preincubation; 0.1 nM Caspase-3, 10 µM Ac-DEVD-AMC; read-out: Enzyme assays Casp3 IC50 (converted)
T3 sequence (P42574 29-175 limits assumed): T2 sequence (P42574 29-175 limits assumed)
T3 sequence (P42574 176-277 limits assumed): T2 sequence (P42574 176-277 limits assumed)
Description: The human active recombinant Caspase-3 (#707-C3) was purchased from R&D Systems (Minneapolis, USA). […] Stock solutions were stored at −80 °C. […] Caspase inhibitors were solubilized in DMSO at 10 mM and stored at −80 °C.
Initial velocity (V0) was determined from the linear portion of the progress curve. The composition of the activity buffer was: 20 mM HEPES, pH 7.4; 0.1% CHAPS, 5 mM DTT, 2 mM EDTA; 800 mM sodium succinate for Caspase-2 (0.2 nM) with 25 µM of Ac-VDVAD-7-amino-3-methylcoumarin (AMC) and 20 mM HEPES, pH 7.4; 0.1% CHAPS, 5 mM DTT, 2 mM EDTA; supplemented with 1 mg/mL of stabilizing agent bovine serum albumin (BSA) for Caspase-3 (0.1 nM) with 10 μM of Ac-DEVD-AMC. Compounds (0.001–100 µM) were tested in duplicate for each inhibitor concentration to detect their inhibitory potential. Enzymes and compounds were incubated for 30 min before initiating enzymatic reaction by adding substrate. Initial rates determined in control experiments (V0) were considered as 100% of the caspase activity; initial rates that were below 100% in the presence of tested compound (Vi) were considered as inhibition. The inhibitory activity of compounds was expressed as IC50 (Inhibitor concentration giving 50% inhibition). The values of IC50 were calculated by fitting the experimental data using Mars data Analysis 2.0 and KaleidaGraph software.1 %Inhibition=1001−Vi/V0=100I0/IC50+I0

Cathepsin-B = Cathepsin-B (Homo sapiens, UniProt P07858); assay: Non-caspase enzyme assay, Cathepsin-B; assay type: biochemical; conditions: concentrations up to 10 µM
Description: (§3) Stock solutions were stored at −80 °C. […]
(§4) Non-caspase enzyme assays
(§5) The human pro- kallikrein-1 (pro-hK1) was activated in a buffer containing: Tris-HCl 50 mM, CaCl2 10 mM, NaCl 150 mM, Brij-35 0,05% pH 7,5. Human pro-kallikrein-6 and -8 (pro-hK6 and 8 were activated using Lysyl-endopeptidase (Wako- BioProducts®) at a 1/500 weight ratio, in a buffer containing 50 mM Tris and 0,05% Brij-35 (pH 8). Kinetics using non-caspase enzymes for selectivity studies were done according to the following conditions.
(§6) Enzymes Substrates Buffers
(§7) Cathepsine B (0.2 nM) z-RR-AMC 20 µM Acétate de sodium 0,1 M; EDTA 1mM ; […]
(§8) Cathepsine L (1.2 nM) RLR-AMC 25 µM Acétate de sodium 0,1 M; EDTA 1mM ; […]
(§9) Cathepsine D (0.1 nM) Mca-Gly-Ly s-Pro-Ile-Leu-Phe-Phe- Citrate de Sodium 0,1 M; EDTA 2 mM ; Arg-Leu-Lys(Dnp)-D-Arg-NH2 10 µM Brij-35 0,01%; pH 4 hK1 (4 nM) Boc-VPR-AMC 100µM Tris 50mM; Citrate 1M; Brij-35 0.05%; pH7 hK6 (2 nM ) Boc-QAR -AMC 100 µM Tris 50mM; Citrate 1M; Brij-35 0.05%; pH7 hK8 (1 nM) Boc-VPR-AMC 100µM Tris 50mM; Citrate 1M; Brij-35 0.05%; pH7
(§10) Thrombine (10 mU/mL) Boc-VPR-AMC 100µM Tris 50mM; Citrate 1M; Brij-35 0.05%; pH7 Plasmine (4 nM ) Boc-QAR -AMC 100µM Tris 50mM; Citrate 1M; Brij-35 0.05%; pH7 Trypsine (0.1 nM) Boc-QAR -AMC 100µM Tris 50mM; Citrate 1M; Brij-35 0.05%; pH7

Plasmin = target: T4, Plasmin (Homo sapiens, UniProt P00747); assay: Non-caspase enzyme assay, Plasmin; assay type: biochemical; conditions: concentrations up to 10 µM
T4 construct: The human active Plasmin, Thrombin, and Trypsin; purchased Sigma-Aldrich
Description: as §3, §4, §5, §6, §7, §8, §9, §10

Kallikrein-1 = target: T5, Kallikrein-1 (Homo sapiens, UniProt P06870); assay: Non-caspase enzyme assay, Kallikrein-1; assay type: biochemical; conditions: concentrations up to 10 µM
T5 construct: purchased R&D Systems 2337-SE-010
Description: as §3, §4, §5, §6, §7, §8, §9, §10

Kallikrein-8 = target: T6, Kallikrein-8 (Homo sapiens, UniProt O60259); assay: Non-caspase enzyme assay, Kallikrein-8; assay type: biochemical; conditions: concentrations up to 10 µM
T6 construct: purchased R&D Systems 2025-SE-010
Description: as §3, §4, §5, §6, §7, §8, §9, §10

Trypsin = assay: Non-caspase enzyme assay, Trypsin; assay type: biochemical, human; conditions: concentrations up to 10 µM
Description: as §3, §4, §5, §6, §7, §8, §9, §10

[2] = irreversible inhibitors, progress curve method

T6 sequence (O60259 33-260): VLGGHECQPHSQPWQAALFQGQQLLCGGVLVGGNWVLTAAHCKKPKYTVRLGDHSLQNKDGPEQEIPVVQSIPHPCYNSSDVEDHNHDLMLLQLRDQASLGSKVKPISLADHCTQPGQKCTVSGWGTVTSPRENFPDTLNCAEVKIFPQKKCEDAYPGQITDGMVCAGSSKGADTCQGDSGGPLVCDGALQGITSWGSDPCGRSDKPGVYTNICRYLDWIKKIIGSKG
T4 sequence (P00747 581-810 limits assumed): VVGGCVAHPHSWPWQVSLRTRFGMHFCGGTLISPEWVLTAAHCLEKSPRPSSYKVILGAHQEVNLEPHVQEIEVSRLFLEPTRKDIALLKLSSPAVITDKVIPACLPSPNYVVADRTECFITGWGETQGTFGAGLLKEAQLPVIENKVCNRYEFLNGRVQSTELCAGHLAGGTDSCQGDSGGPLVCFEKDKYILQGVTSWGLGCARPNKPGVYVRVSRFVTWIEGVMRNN
T4 sequence (P00747 97-580 partner limits assumed): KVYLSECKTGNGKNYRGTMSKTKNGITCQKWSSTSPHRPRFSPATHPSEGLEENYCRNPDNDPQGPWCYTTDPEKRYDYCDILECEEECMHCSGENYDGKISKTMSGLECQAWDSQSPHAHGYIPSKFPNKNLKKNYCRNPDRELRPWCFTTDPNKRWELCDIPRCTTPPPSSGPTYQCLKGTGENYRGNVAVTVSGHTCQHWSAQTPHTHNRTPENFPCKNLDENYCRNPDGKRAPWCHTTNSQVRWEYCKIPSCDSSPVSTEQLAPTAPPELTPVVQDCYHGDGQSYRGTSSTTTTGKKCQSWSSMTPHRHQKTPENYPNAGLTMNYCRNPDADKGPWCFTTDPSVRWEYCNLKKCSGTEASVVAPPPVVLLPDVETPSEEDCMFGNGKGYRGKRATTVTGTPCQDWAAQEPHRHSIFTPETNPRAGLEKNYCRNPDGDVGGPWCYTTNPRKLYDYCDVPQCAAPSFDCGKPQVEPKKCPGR
T5 sequence (P06870 25-262): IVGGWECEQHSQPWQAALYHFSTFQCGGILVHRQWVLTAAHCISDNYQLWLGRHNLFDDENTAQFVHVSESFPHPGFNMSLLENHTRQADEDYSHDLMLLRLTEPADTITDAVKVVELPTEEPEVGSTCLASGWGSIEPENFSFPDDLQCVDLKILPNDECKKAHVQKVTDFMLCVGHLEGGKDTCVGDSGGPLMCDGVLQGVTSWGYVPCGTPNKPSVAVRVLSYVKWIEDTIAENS

Cc1ccc2c(c1)CCN(C(=O)[C@@H](NC(=O)[C@H](CC(=O)O)NC(=O)[C@@H](NC(=O)c1ccc3ccccc3n1)C(C)C)C(C)C)C2C(=O)NC(CC(=O)O)C(=O)COc1c(F)cccc1F (stereo partly drawn) [LJ2, Quinolin-2-carbonyl-VDV-(methyl-isoquinolyl)-D-CH2-O(2,6F2)Ph] (Quinaldoyl-VDV[ξTHIQ1CO(6-Me)]-X1)
selectivity: inactivation rate (k3/Ki) on Casp2 as compared to Casp3 (recombinant human Casp2): 25 times and ~ 25 times | Casp2 k3 (recombinant human Casp2; [2]): 4,91 ms^−1 | Casp2 k3/KI (recombinant human Casp2; [2]): ~ 1,322,875 M^−1 s^−1 and 1 322 875 M^−1 s^−1 and ~ 1,300,000 M^−1 s^−1 | KI (inactivation) (recombinant human Casp2; [2]): 3.68 nM | Casp3 k3 (recombinant human Casp3): 2,37 ms^−1 | Casp3 k3/KI (recombinant human Casp3): 51,992 M^−1 s^−1 and 51 992 M^−1 s^−1 | KI (inactivation) (recombinant human Casp3): 47 nM | IC50 [1]: 140 ± 5 nM

CC(C)[C@H](NC(=O)c1ccc2ccccc2n1)C(=O)N[C@@H](CC(=O)O)C(=O)N[C@H](C(=O)N1CC[C@H](CC(C)(C)C)[C@@H]1C(=O)NC(CC(=O)O)C(=O)COc1c(F)cccc1F)C(C)C (some centres unmarked) [LJ3a]
effect on Cathepsin-B (Cathepsin-B): very limited or no effect | selectivity: inactivation rate (k3/Ki) on Casp2 as compared to Casp3 (recombinant human Casp2): ~1000 times and 946 times | Casp2 k3 (recombinant human Casp2; [2]): 5 ± 7 × 10^−4 ms^−1 | Casp2 k3/KI (recombinant human Casp2; [2]): 1,708,996 M^−1 s^−1 | Ki (recombinant human Casp2; irreversible inhibitors, progress curve method, read-out: Casp2 KI): 2.8 ± 0.8 nM | Casp3 k3 (recombinant human Casp3): 0.7 ± 9 × 10^−5 ms^−1 | Casp3 k3/KI (recombinant human Casp3): 1807 M⁻¹ s⁻¹ | Ki (recombinant human Casp3; read-out: Casp3 KI): 400 ± 93.3 nM | effect on Plasmin (Plasmin): very limited or no effect | effect on Kallikrein-1 (Kallikrein-1): very limited or no effect | effect on Kallikrein-8 (Kallikrein-8): very limited or no effect | effect on Trypsin (Trypsin): very limited or no effect
